From patent US20260191968A1, “PROTAC DEGRADERS OF MLLT1 AND/OR MLLT3” (DARK BLUE THERAPEUTICS LTD, priority 2024, published 2026)

What was measured:
MLLT1 = target: T1, MLLT1 (Homo sapiens, UniProt Q03111); assay: MLLT1 degradation assay in MV4-11 cells (JESS chemiluminescent detection), three concentrations, 24 h; type: cell-based; settings: with respect to DMSO control
T1 construct: host or cells: MV4-11
T1 sequence (Q03111 1-559): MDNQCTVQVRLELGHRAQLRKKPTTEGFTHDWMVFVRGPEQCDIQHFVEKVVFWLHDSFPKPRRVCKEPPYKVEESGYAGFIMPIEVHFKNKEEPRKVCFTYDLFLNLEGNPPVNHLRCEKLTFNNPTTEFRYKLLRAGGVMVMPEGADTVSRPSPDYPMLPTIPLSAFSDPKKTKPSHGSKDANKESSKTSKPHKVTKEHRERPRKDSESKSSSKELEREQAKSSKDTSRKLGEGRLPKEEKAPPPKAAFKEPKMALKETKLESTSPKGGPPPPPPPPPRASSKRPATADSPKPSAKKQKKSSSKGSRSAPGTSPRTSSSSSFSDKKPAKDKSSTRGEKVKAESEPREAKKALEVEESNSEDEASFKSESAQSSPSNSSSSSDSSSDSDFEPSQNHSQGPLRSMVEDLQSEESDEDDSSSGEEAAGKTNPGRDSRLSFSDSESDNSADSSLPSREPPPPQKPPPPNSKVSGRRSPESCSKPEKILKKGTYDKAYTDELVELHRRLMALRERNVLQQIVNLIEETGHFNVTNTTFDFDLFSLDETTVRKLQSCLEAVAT
In short: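 MV4-11 cells treated 24 h at 37° C, 5% CO2 with 1000, 100 and 10 nM compound (0.1% DMSO final). MLLT1 quantified by automated capillary chemiluminescent immunodetection; band peak area expressed as % degradation relative to DMSO control.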

MV4-11 cells = assay: MV4-11 cellular proliferative assay, Assay Format B (CTG 2.0, 168 h); type: cell-based; settings: Homo sapiens, 168 h (7 days), CTG 2.0, read-out: IC50 (MV4-11 cellular proliferative assay, Assay format B)
In short: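 MV4-11 cells seeded overnight in IMDM + 10% FBS, then exposed to 10-point, 3-fold dilutions from 1 uM or 100 nM top concentration (0.3% DMSO final) for 168 h at 37 °C. CTG 2.0 luminescence read; % viability vs DMSO control fitted by four-parameter logistic regression.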

SMILES	MLLT1% Degradation @ 0.01 μM (MLLT1)	MLLT1% Degradation @ 0.1 μM (MLLT1)	MLLT1% Degradation @ 1 μM (MLLT1)	IC50 (MV4-11 cells)
CN1CCC[C@@H]1c1cc2cnc(NC(=O)c3ccc(OCCC4CCN(c5ccc6c(c5)C(=O)N(C5CCC(=O)NC5=O)C6=O)CC4)cc3)cc2[nH]1 (stereo partly drawn) [Example 83, 4-(2-(1-(2-(2,6-dioxopiperidin-3-yl)-1,3-dioxoisoindolin-5-yl)piperidin-4-yl)ethoxy)-N-(2-((R)-1-methylpyrrolidin-2-yl)-1H-pyrrolo[3,2-c]pyridin-6-yl)benzamide]	A (Category A: A ≥ 75% degradation)	A (Category A: A ≥ 75% degradation)	B (Category B: 50% ≤ B < 75% degradation)	≤ 100 nM
CN1CCC[C@@H]1c1cc2cnc(NC(=O)c3ccc(CCC4CCN(c5cccc6c5CN(C5CCC(=O)NC5=O)C6=O)CC4)cc3)cc2[nH]1 (stereo partly drawn) [Example 177, 4-(2-(1-(2-(2,6-dioxopiperidin-3-yl)-1-oxoisoindolin-4-yl)piperidin-4-yl)ethyl)-N-(2-((R)-1-methylpyrrolidin-2-yl)-1H-pyrrolo[3,2-c]pyridin-6-yl)benzamide]	A (Category A: A ≥ 75% degradation)	A (Category A: A ≥ 75% degradation)	A (Category A: A ≥ 75% degradation)	≤ 100 nM
COc1cc(N2CCN(CC3CCN(c4cccc5c4CN(C4CCC(=O)NC4=O)C5=O)CC3)CC2)cc(F)c1C(=O)Nc1cc2[nH]c([C@H]3CCCN3C)cc2cn1 (stereo partly drawn) [Example 120, 4-(4-((1-(2-(2,6-dioxopiperidin-3-yl)-1-oxoisoindolin-4-yl)piperidin-4-yl)methyl)piperazin-1-yl)-2-fluoro-6-methoxy-N-(2-((R)-1-methylpyrrolidin-2-yl)-1H-pyrrolo[3,2-c]pyridin-6-yl)benzamide]	B (Category B: 50% ≤ B < 75% degradation)	A (Category A: A ≥ 75% degradation)	C (Category C: 25% ≤ C < 50% degradation)	≤ 100 nM
CN1CC2(CC2)CC1c1cc2cnc(NC(=O)c3ccc(CCCCC#Cc4cccc5c4CN(C4CCC(=O)NC4=O)C5=O)nc3)cc2[nH]1 (stereo not drawn) [Example 86, 6-(6-(2-(2,6-dioxopiperidin-3-yl)-1-oxoisoindolin-4-yl)hex-5-yn-1-yl)-N-(2-((rel-R)-5-methyl-5-azaspiro[2.4]heptan-6-yl)-1H-pyrrolo[3,2-c]pyridin-6-yl)nicotinamide]	A (Category A: A ≥ 75% degradation)	A (Category A: A ≥ 75% degradation)	B (Category B: 50% ≤ B < 75% degradation)	≤ 100 nM
CN1CCC[C@@H]1c1cc2cnc(NC(=O)c3ccc(OCC4CCN(c5cccc6c5CN(C5CCC(=O)NC5=O)C6=O)CC4)cc3)cc2[nH]1 (stereo partly drawn) [Example 159, 4-((1-(2-(2,6-dioxopiperidin-3-yl)-1-oxoisoindolin-4-yl)piperidin-4-yl)methoxy)-N-(2-((R)-1-methylpyrrolidin-2-yl)-1H-pyrrolo[3,2-c]pyridin-6-yl)benzamide]	A (Category A: A ≥ 75% degradation)	A (Category A: A ≥ 75% degradation)	A (Category A: A ≥ 75% degradation)	≤ 100 nM
C[C@@H]1CN(CC2CCN(c3cccc4c3CN(C3CCC(=O)NC3=O)C4=O)CC2)CCN1c1ccc(C(=O)Nc2cc3[nH]c([C@H]4CCCN4C)cc3cn2)cc1 (relative stereo) [Example 135, 4-((R)-4-((1-(2-((rel-S)-2,6-dioxopiperidin-3-yl)-1-oxoisoindolin-4-yl)piperidin-4-yl)methyl)-2-methylpiperazin-1-yl)-N-(2-((R)-1-methylpyrrolidin-2-yl)-1H-pyrrolo[3,2-c]pyridin-6-yl)benzamide]	A (Category A: A ≥ 75% degradation)	A (Category A: A ≥ 75% degradation)	A (Category A: A ≥ 75% degradation)	≤ 100 nM
CN1CCC[C@@H]1c1cc2cnc(NC(=O)c3ccc(-c4cnn(CCCC5CCN(c6cccc7c6C(=O)N(C6CCC(=O)NC6=O)C7=O)CC5)c4)cc3F)cc2[nH]1 (stereo partly drawn) [Example 210, 4-(1-(3-(1-(2-(2,6-dioxopiperidin-3-yl)-1,3-dioxoisoindolin-4-yl)piperidin-4-yl)propyl)-1H-pyrazol-4-yl)-2-fluoro-N-(2-((R)-1-methylpyrrolidin-2-yl)-1H-pyrrolo[3,2-c]pyridin-6-yl)benzamide]	B (Category B: 50% ≤ B < 75% degradation)	A (Category A: A ≥ 75% degradation)	A (Category A: A ≥ 75% degradation)	≤ 100 nM
CN1CCC[C@@H]1c1cc2cnc(NC(=O)c3ccc(OCCN4CCC5(CC4)CCN(c4ccc6c(c4)CN(C4CCC(=O)NC4=O)C6=O)CC5)cc3)cc2[nH]1 (stereo partly drawn) [Example 164, 4-(2-(9-(2-(2,6-dioxopiperidin-3-yl)-1-oxoisoindolin-5-yl)-3,9-diazaspiro[5.5]undecan-3-yl)ethoxy)-N-(2-((R)-1-methylpyrrolidin-2-yl)-1H-pyrrolo[3,2-c]pyridin-6-yl)benzamide]	A (Category A: A ≥ 75% degradation)	A (Category A: A ≥ 75% degradation)	A (Category A: A ≥ 75% degradation)	≤ 100 nM
C[C@@H]1CN(CC2CCN(c3cccc4c3CN(C3CCC(=O)NC3=O)C4=O)CC2)CCN1c1ccc(C(=O)Nc2cc3[nH]c([C@H]4CCCN4C)cc3cn2)cn1 (stereo partly drawn) [Example 163, 6-((2R)-4-((1-(2-(2,6-dioxopiperidin-3-yl)-1-oxoisoindolin-4-yl)piperidin-4-yl)methyl)-2-methylpiperazin-1-yl)-N-(2-((R)-1-methylpyrrolidin-2-yl)-1H-pyrrolo[3,2-c]pyridin-6-yl)nicotinamide]	A (Category A: A ≥ 75% degradation)	A (Category A: A ≥ 75% degradation)	A (Category A: A ≥ 75% degradation)	≤ 100 nM
CN1CCC[C@@H]1c1cc2cnc(NC(=O)c3ccc(C4CCN(CC5CCN(c6cccc7c6CN(C6CCC(=O)NC6=O)C7=O)CC5)CC4)cc3)cc2[nH]1 (stereo partly drawn) [Example 167, 4-(1-((1-(2-(2,6-dioxopiperidin-3-yl)-1-oxoisoindolin-4-yl)piperidin-4-yl)methyl)piperidin-4-yl)-N-(2-((R)-1-methylpyrrolidin-2-yl)-1H-pyrrolo[3,2-c]pyridin-6-yl)benzamide]	A (Category A: A ≥ 75% degradation)	A (Category A: A ≥ 75% degradation)	A (Category A: A ≥ 75% degradation)	≤ 100 nM
CN1CCC[C@@H]1c1cc2cnc(NC(=O)c3cnc(N4CCC(C#Cc5cccc6c5CN(C5CCC(=O)NC5=O)C6=O)CC4)nc3)cc2[nH]1 (stereo partly drawn) [Example 65, 2-(4-((2-(2,6-dioxopiperidin-3-yl)-1-oxoisoindolin-4-yl)ethynyl)piperidin-1-yl)-N-(2-((R)-1-methylpyrrolidin-2-yl)-1H-pyrrolo[3,2-c]pyridin-6-yl)pyrimidine-5-carboxamide]	B (Category B: 50% ≤ B < 75% degradation)	B (Category B: 50% ≤ B < 75% degradation)	B (Category B: 50% ≤ B < 75% degradation)	≤ 100 nM
CN1CCC[C@@H]1c1cc2cnc(NC(=O)c3ccc(CCCCC#Cc4cccc(C(=O)N[C@H]5CCC(=O)NC5=O)n4)cc3)cc2[nH]1 [Example 7, N—((S)-2,6-dioxopiperidin-3-yl)-6-(6-(4-((2-((R)-1-methylpyrrolidin-2-yl)-1H-pyrrolo[3,2-c]pyridin-6-yl)carbamoyl)phenyl)hex-1-yn-1-yl)picolinamide]	A (Category A: A ≥ 75% degradation)	A (Category A: A ≥ 75% degradation)	A (Category A: A ≥ 75% degradation)	≤ 100 nM
